According to patent US8772499B2, “TRPV3 modulators” (AbbVie Inc., priority 2011, dated 2014):
Read-outs that look alike come from different tables or passages of the source.

Experiments:
[1] = In vitro rat microsomal stability assay; type: in vitro ADME, rat (Sprague-Dawley)
Outline: (§1)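 Metabolic stability was followed in NADPH-supplemented incubations at 37° C., using microsomes prepared from human liver or from Sprague-Dawley rat liver.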

[2] = biological target: T1, human TRPV3 (Homo sapiens, UniProt Q8NET8); assay: In vitro antagonism of recombinant human TRPV3 activation (FLIPR Tetra calcium assay); type: cell-based; conditions: HEK293 cells stably expressing human TRPV3, agonist 2-APB at 80 μM
T1 construct: expressed in transfected cells
T1 sequence (Q8NET8 1-790): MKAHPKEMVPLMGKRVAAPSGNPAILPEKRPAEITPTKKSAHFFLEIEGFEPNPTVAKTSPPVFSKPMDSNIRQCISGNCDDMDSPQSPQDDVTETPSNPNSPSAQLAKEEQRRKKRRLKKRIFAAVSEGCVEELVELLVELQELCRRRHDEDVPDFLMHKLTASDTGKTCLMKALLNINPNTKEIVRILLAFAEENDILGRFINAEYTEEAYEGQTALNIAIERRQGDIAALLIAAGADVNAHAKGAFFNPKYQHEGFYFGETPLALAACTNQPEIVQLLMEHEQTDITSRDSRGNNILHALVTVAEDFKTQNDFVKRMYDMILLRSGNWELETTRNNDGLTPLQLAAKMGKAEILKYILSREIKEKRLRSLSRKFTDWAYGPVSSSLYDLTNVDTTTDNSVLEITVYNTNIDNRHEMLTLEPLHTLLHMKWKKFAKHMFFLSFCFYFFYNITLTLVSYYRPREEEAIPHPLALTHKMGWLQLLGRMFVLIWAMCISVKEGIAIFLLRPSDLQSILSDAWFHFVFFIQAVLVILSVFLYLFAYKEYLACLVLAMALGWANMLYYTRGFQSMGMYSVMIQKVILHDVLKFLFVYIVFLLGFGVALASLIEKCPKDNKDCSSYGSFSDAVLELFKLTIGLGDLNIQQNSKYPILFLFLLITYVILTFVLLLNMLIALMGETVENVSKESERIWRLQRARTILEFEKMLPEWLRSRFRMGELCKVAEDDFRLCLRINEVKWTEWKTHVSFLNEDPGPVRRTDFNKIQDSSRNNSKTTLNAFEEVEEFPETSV
Outline: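 Calcium flux read over a 10 min run: compound added at 10 s to Calcium-4-loaded human TRPV3-HEK293 cells, agonist 2-APB (80 μM, its EC80) after 3 min. IC50 derived from peak-minus-baseline signal as percentage of uninhibited 2-APB response, typically averaged over at least two runs.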

[3] = In vitro human microsomal stability assay; type: in vitro ADME
Outline: as §1

[4] = Sprague-Dawley, rat, microsomes, 0.5 h, 0.5 μM, pH 7.4
[5] = actual measured value shown parenthetically, in most cases average of at least two runs, read-out: IC50
[6] = human, microsomes, 0.5 h, 0.5 μM, pH 7.4
[7] = reported range, read-out: IC50 (range class)

Structure (SMILES)	RAT MICROSOMAL STABILITY (% REMAINING AFTER 30 MINUTES) [1, 4]	IC50 [2, 5]	HUMAN MICROSOMAL STABILITY (% REMAINING AFTER 30 MINUTES) [3, 6]	IC50 [2, 7]	RAT MICROSOMAL STABILITY (% REMAINING AFTER 30 MINUTES) ([1]; rat liver microsomes (Sprague-Dawley), 0.5 μM substrate, 0.25 mg/mL microsomal protein, pH 7.4, 37° C., NADPH, 30 minutes)	HUMAN MICROSOMAL STABILITY (% REMAINING AFTER 30 MINUTES) ([3]; human liver microsomes, 0.5 μM substrate, 0.25 mg/mL microsomal protein, pH 7.4, 37° C., NADPH, 30 minutes)
OC(c1ccccn1)C1(C2CCC(F)(F)CC2)CCC1 (stereo not drawn) [Example 274, [1-(4,4-difluorocyclohexyl)cyclobutyl](pyridin-2-yl)methanol]	10%	3.11 µM	55%			
N[C@@H]1CCC[C@H]1[C@@H](O)C1(c2ccc(OC(F)(F)F)cc2)CCC1 [Example 223, (R)-[(1R,2R)-2-aminocyclopentyl]{1-[4-(trifluoromethoxy)phenyl]-cyclobutyl}methanol]	65%	2.07 µM	>85%			
COc1ccnc(C(O)C2(c3ccc(Cl)c(Cl)c3)CCC2)c1 (stereo not drawn) [Example 289, [1-(3,4-dichlorophenyl)cyclobutyl](4-methoxypyridin-2-yl)methanol]	<0.01%	> 20 µM	4.2%	> 20 µM		
CC(C)(C)OC(=O)N1CCC(C2(C(O)c3ccccn3)CCC2)C1 (stereo not drawn) [Example 265, tert-butyl 3-{1-[hydroxy(pyridin-2-yl)methyl]cyclobutyl}pyrrolidine-1-carboxylate]	0.059%	5.64 µM	43%			
CN1CCC(c2ccc(OC(F)(F)F)cc2)(C(O)c2ccccn2)CC1 (stereo not drawn) [Example 145, {1-methyl-4-[4-(trifluoromethoxy)phenyl]piperidin-4-yl}(pyridin-2-yl)-methanol]		1.77 µM			42%	68%
OC1CC(c2ccc(Cl)c(Cl)c2)(C(O)c2ncccn2)C1 (single isomer, unassigned) [Example 313]	>85%	> 20 µM	81%	> 20 µM		
OC(C1CCc2cccnc21)C1(c2cccc(OC(F)(F)F)c2)CCC1 (stereo not drawn) [Example 189, (anti)-6,7-dihydro-5H-cyclopenta[b]pyridin-7-yl{1-[3-(trifluoromethoxy)-phenyl]cyclobutyl}methanol]	<0.01%	> 20 µM	0.65%	> 20 µM		
CC(c1ccccc1Cl)C1(C(O)c2ccccn2)CCC1 (stereo not drawn) [Example 50, {1-[1-(2-chlorophenyl)ethyl]cyclobutyl}(pyridin-2-yl)methanol]	0.18%	2.42 µM	0.08%			
OC(C1CCCc2cccnc21)C1(c2ccc(C(F)(F)F)cc2)CCC1 (single isomer, unassigned) [Example 184, (syn)-5,6,7,8-tetrahydroquinolin-8-yl{1-[4-(trifluoromethyl)phenyl]-cyclobutyl}methanol]	<0.01%	> 20 µM	0.46%	> 20 µM		

The next lines start with results.

RAT MICROSOMAL STABILITY (% REMAINING AFTER 30 MINUTES) [1, 4]	IC50 [2, 5]	HUMAN MICROSOMAL STABILITY (% REMAINING AFTER 30 MINUTES) [3, 6]	IC50 [2, 7]	Structure (SMILES)	RAT MICROSOMAL STABILITY (% REMAINING AFTER 30 MINUTES) ([1]; rat liver microsomes (Sprague-Dawley), 0.5 μM substrate, 0.25 mg/mL microsomal protein, pH 7.4, 37° C., NADPH, 30 minutes)	HUMAN MICROSOMAL STABILITY (% REMAINING AFTER 30 MINUTES) ([3]; human liver microsomes, 0.5 μM substrate, 0.25 mg/mL microsomal protein, pH 7.4, 37° C., NADPH, 30 minutes)
59%	1.67 µM	66%		O=C1CC(c2cccc(C(F)(F)F)c2)([C@H](O)c2ccccn2)C1 (single isomer, unassigned) [Example 241]		
21%	3.91 µM	7.1%		O[C@H](c1ccccn1)C1(c2cccc(C(F)(F)F)n2)CCC1 [Example 238, (S)-pyridin-2-yl{1-[6-(trifluoromethyl)pyridin-2-yl]cyclobutyl}methanol]		
8.6%	> 20 µM	47%	> 20 µM	OC(c1ccccn1)C1(c2ccc(Cl)c(Cl)c2)COC1 (stereo not drawn) [Example 87, [3-(3,4-dichlorophenyl)oxetan-3-yl](pyridin-2-yl)methanol]		
0.74%	0.94 µM	44%		OC(CC1(c2ccc(C(F)(F)F)cc2)CCC1)c1ccccn1 (stereo not drawn) [Example 75, 1-(pyridin-2-yl)-2-{1-[4-(trifluoromethyl)phenyl]cyclobutyl}ethanol]		
3.8%	0.79 µM	28%		OC(c1ccccn1)C1(c2ccc(F)cc2)CCC1 (stereo not drawn) [Example 3, [1-(4-fluorophenyl)cyclobutyl](pyridin-2-yl)methanol]		
11%	0.23 µM	6.9%		OC(c1ccccn1)C1(c2cccc(OC(F)(F)F)c2)CC(F)(F)C1 (stereo not drawn) [Example 114, {3,3-difluoro-1-[3-(trifluoromethoxy)phenyl]cyclobutyl}(pyridin-2-yl)-methanol]		
55%	18.5 µM	64%		O=C1CC(c2cccc(C(F)(F)F)c2)([C@@H](O)c2ccccn2)C1 (single isomer, unassigned) [Example 243]		
8.8%	18.6 µM	53%		O[C@@H](c1ccccn1)C1(c2cc(C(F)(F)F)ccn2)CC(F)(F)C1 [Example 125, (R)-{3,3-difluoro-1-[4-(trifluoromethyl)pyridin-2-yl]cyclobutyl}(pyridin-2-yl)-methanol]		
53%	17.3 µM	>85%		Cc1cc(C(F)(F)F)cc(C2([C@@H](O)c3ccccn3)CC(=O)C2)n1 [Example 291, 3-[(R)-hydroxy(pyridin-2-yl)methyl]-3-[6-methyl-4-(trifluoromethyl)-pyridin-2-yl]cyclobutanone]		
1.0%	0.33 µM	46%		Cc1cccc(C2(C(O)c3ccccn3)CCCO2)c1 (stereo not drawn) [Example 91, [2-(3-methylphenyl)tetrahydrofuran-2-yl](pyridin-2-yl)methanol]		
26%	> 20 µM	28%	> 20 µM	O[C@@H](c1ccccn1)C1(c2cc(C(F)(F)F)ccn2)CCC1 [Example 122, (R)-pyridin-2-yl{1-[4-(trifluoromethyl)pyridin-2-yl]cyclobutyl}methanol]		
